{"source": "patent US4859584A", "about": "(priority 1986, dated 1989)", "note": "Residues, ends and D or L forms follow the SMILES beside them."}
{"tested_on": "V79 cells", "details": "not given"}
{"compound": "CCCCCCCCCCCCCCN1C(=CC=Cc2oc3ccccc3[n+]2CCCCCCCCCCCCCC)Oc2ccccc21", "note": "[DiOC14 (3)]", "Cell doubling time / growth of labelled cells": "Cell doubling time was unaffected"}
{"tested_on": "Yac cells", "details": "not given"}
{"compound": "O=S(=O)(O)CC(O)CNC(CO)(CO)CO", "note": "(centres unmarked) [TAPSO, 3-[N-tris(hydroxymethyl)methylamino]-2-hydroxypropanesulfonic acid]", "Doubling [time] of Yac cells": 63.6}
{"compound": "O=S(=O)(O)CCCN1CCN(CCO)CC1", "note": "[EPPS, N-(2-Hydroxyethyl)piperazine-N-3-propanesulfonic acid]", "Doubling [time] of Yac cells": 32.2, "Effect on cell doubling time (in words)": "negligible effects on cell doubling time"}
{"compound": "O=C(O)CN(CCO)CCO", "note": "[BICINE, N,N-bis(2-hydroxyethyl)glycine]", "Doubling [time] of Yac cells": 57.7}
{"compound": "NCC(=O)NCC(=O)O", "note": "[Glycylglycine] (H-Gly-Gly-OH)", "Doubling [time] of Yac cells": 66.9}
{"compound": "O=S(=O)(O)CCCNC(CO)(CO)CO", "note": "[TAPS, Tris(hydoxymethyl)-methylaminopropane sulfonic acid]", "Doubling [time] of Yac cells": 32.7, "Effect on cell doubling time (in words)": "negligible effects on cell doubling time"}
{"compound": "OC[C@H]1O[C@@](CO)(O[C@H]2O[C@H](CO)[C@@H](O)[C@H](O)[C@H]2O)[C@@H](O)[C@@H]1O", "note": "[Sucrose]", "Doubling [time] of Yac cells": 41.0, "Effect on cell doubling time (in words)": "negligible effects on cell doubling time"}
{"compound": "O=S(=O)(O)CCNC1CCCCC1", "note": "[CHES, 2-(N-cyclohexylamino)ethane sulfonic acid]", "Doubling [time] of Yac cells": 51.5}
{"compound": "O=S(=O)(O)CCCNC1CCCCC1", "note": "[CAPS, 3-(Cyclohexylamino)-1-propanesulfonic acid]", "Doubling [time] of Yac cells": 45.8, "Effect on cell doubling time (in words)": "negligible effects on cell doubling time"}
{"compound": "O=C[C@H](O)[C@@H](O)[C@H](O)[C@H](O)CO", "note": "[Glucose]", "Doubling [time] of Yac cells": 34.5, "Effect on cell doubling time (in words)": "negligible effects on cell doubling time"}
{"compound": "O=S(=O)(O)CC(O)CN1CCN(CCO)CC1", "note": "(centres unmarked) [HEPPSO, N-2-hydroxyethylpiperazine-N-2-hydroxypropane-sulfonic acid]", "Doubling [time] of Yac cells": 23.4, "Effect on cell doubling time (in words)": "negligible effects on cell doubling time"}
{"compound": "Phosphate Buffered Saline", "Doubling [time] of Yac cells": 31.0}
{"compound": "NC(=O)CNCCS(=O)(=O)O", "note": "[ACES, 2-[(2-Amino-2-oxoethyl)amino]ethane sulfonic acid]", "Doubling [time] of Yac cells": 1038.4}
{"compound": "O=S(=O)(O)CC(O)CN1CCOCC1", "note": "(centres unmarked) [MOPSO, 3-(N-morpholino)-2-hydroxypropane-sulfonic acid]", "Doubling [time] of Yac cells": 178.4}
{"compound": "O=S(=O)(O)CC(O)CN(CCO)CCO", "note": "(centres unmarked) [DIPSO, 3-[N-N-bis(2-hydroxyethyl)amino]-2-hydroxypropane-sulfonic acid]", "Doubling [time] of Yac cells": 36.7, "Effect on cell doubling time (in words)": "negligible effects on cell doubling time"}
{"compound": "N[C@H]1C(O)O[C@H](CO)[C@@H](O)[C@@H]1O", "note": "(some centres unmarked) [Glucosamine]", "Doubling [time] of Yac cells": 288.4}
{"compound": "NCCCS(=O)(=O)O", "note": "[3-Amino-1-propanesulfonic acid]", "Doubling [time] of Yac cells": 99.6}
{"tested_on": "rabbit red cells", "details": "in vivo", "units": {"Lifetime of labelled red cells in circulation": "days"}}
{"compound": "CCCCCCCCCCCCCCN1C(=CC=CC=Cc2sc3ccccc3[n+]2CCCCCCCCCCCCCC)Sc2ccccc21", "note": "[DiSC14 (5)]", "Effect on clearance rate of red blood cells": "did not affect the clearance rate of red blood cells", "Lifetime of labelled red cells in circulation": 52}
